This note sets out measurements from PubChem BioAssay (NCI).

Each structure is given as a SMILES string.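 Cells were grown in 96-well plates and exposed to each compound for 48 hours at five concentrations; endpoints were interpolated linearly between bracketing concentrations, or set to the highest concentration if not reached. TGI marks complete inhibition of growth.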 Some results are limits rather than exact numbers.

Among the test systems are HL-60(TB) leukemia; ACHN renal; MOLT-4 leukemia; MDA-N; M14 melanoma; 786-0 renal; NCI/ADR-RES ovarian; UACC-257 melanoma; HOP-92 NSCLC; HS 578T breast; KM12 colon.
Common to all, as to assay: DTP human tumour cell line panel, 48 h

Usually TGI stands for the concentration giving total growth inhibition. With `C=C1C(=O)C[C@H]2C(=C)C(=O)O[C@@H]2C2C1CC[C@@]2(C)O` (stereo not given in full), the concentration for total growth inhibition (TGI) with HL-60(TB) leukemia was over 100 µM; with ACHN renal it was 25 µM; in the test with MOLT-4 leukemia it was over 100 µM; in the test on MDA-N, 77.8 µM; with M14 melanoma it was 33.5 µM; with 786-0 renal it was 77.7 µM. Moreover, the total growth inhibition concentration (TGI) is 64.2 µM with NCI/ADR-RES ovarian; 56.1 µM in the test on UACC-257 melanoma; over 100 µM in the test with HOP-92 NSCLC; over 100 µM in the test with HS 578T breast; over 100 µM in the test with KM12 colon.
For the compound `O=c1cnn(C/C=C/CBr)c(=O)[nH]1`, the TGI with HL-60(TB) leukemia worked out at 26.5 µM; with ACHN renal, 37.1 µM; in the test on MOLT-4 leukemia, 50.1 µM; in the test on MDA-N, 33.3 µM; in the test with M14 melanoma it was 35.9 µM; in the test with NCI/ADR-RES ovarian, 58.1 µM. Besides, the total growth inhibition concentration (TGI) with UACC-257 melanoma is 26.9 µM; with HOP-92 NSCLC, 28.7 µM; in the test on HS 578T breast, over 100 µM; in the test with KM12 colon it was 32.7 µM.
For the compound `CCCC(=O)n1[nH]c(=O)n(-c2ccc(Cl)cc2)c1=O`, the total growth inhibition concentration (TGI) in the test on HL-60(TB) leukemia, with ACHN renal, in the test on MOLT-4 leukemia, in the test on MDA-N, in the test on M14 melanoma and with 786-0 renal was over 100 µM throughout. In addition, the concentration for total growth inhibition (TGI) in the test on NCI/ADR-RES ovarian, in the test on UACC-257 melanoma, in the test with HS 578T breast and in the test on KM12 colon was over 100 µM each time.
`COc1cccc2c1OC(c1ccc(Cl)cc1)C([N+](=O)[O-])=C2` (stereo not given): the TGI was over 100 µM in the test with HL-60(TB) leukemia; 3.28 µM in the test on ACHN renal; 8.58 µM in the test with MOLT-4 leukemia; 3.45 µM with MDA-N; 2.57 µM in the test on M14 melanoma; 3.63 µM with 786-0 renal. Further, the total growth inhibition concentration (TGI) in the test on NCI/ADR-RES ovarian was 39.5 µM; with UACC-257 melanoma, 8.39 µM; in the test with HS 578T breast it was 13.4 µM; with KM12 colon, 4.84 µM.
On to `N#Cc1c(-c2ccc(Cl)cc2)c2c([nH]c1=O)-c1ccccc1SC2`, for which the TGI in the test with HL-60(TB) leukemia is 56.7 µM; with MOLT-4 leukemia, 94.8 µM; with MDA-N, over 100 µM; with M14 melanoma it was over 100 µM; in the test on 786-0 renal, over 100 µM; in the test on NCI/ADR-RES ovarian, over 100 µM. In addition, the TGI with UACC-257 melanoma was over 100 µM; with HOP-92 NSCLC it was 71.9 µM; in the test on HS 578T breast it was over 100 µM; with KM12 colon, over 100 µM.
For the compound `COc1ccc(N2C(=O)CC(C3CC(C(C)(C)C)CCC3=O)C2=O)cc1` (stereo not given), the total growth inhibition concentration (TGI) with HL-60(TB) leukemia, with ACHN renal, in the test on MOLT-4 leukemia, with MDA-N, in the test on M14 melanoma and in the test with 786-0 renal was over 100 µM in each case. Also, the TGI in the test with NCI/ADR-RES ovarian, in the test on UACC-257 melanoma, in the test on HS 578T breast and in the test on KM12 colon was over 100 µM throughout.
As to `COc1ccccc1/C(=N\OCCC(=O)O)c1cccs1`, the TGI with HL-60(TB) leukemia, in the test with ACHN renal, in the test with MOLT-4 leukemia, with MDA-N, in the test on 786-0 renal and with NCI/ADR-RES ovarian was over 100 µM in each case. For the same compound, the TGI with UACC-257 melanoma, in the test on HOP-92 NSCLC, in the test on HS 578T breast and with KM12 colon was over 100 µM each time.
Turning to `CCCCc1c(N(C)C)c(OC(C)=O)c(-c2cn(C)c3ccccc23)oc1=O`, the total growth inhibition concentration (TGI) is 51.1 µM in the test with HL-60(TB) leukemia; over 100 µM with ACHN renal; over 100 µM in the test with MOLT-4 leukemia; 44.8 µM in the test on MDA-N; 35.8 µM with M14 melanoma; over 100 µM in the test with 786-0 renal. Further, the TGI is 56.3 µM in the test with NCI/ADR-RES ovarian, 59.8 µM in the test with UACC-257 melanoma, over 100 µM in the test on HS 578T breast and 37.5 µM with KM12 colon.
`CCCCCCCCCC1(N=[N+]=[N-])C(=O)c2ccccc2N(C)C1=O` (stereo not given): the total growth inhibition concentration (TGI) in the test with HL-60(TB) leukemia was over 100 µM; in the test with ACHN renal, over 100 µM; with MDA-N, 79.1 µM; in the test with M14 melanoma, 64.6 µM; in the test with 786-0 renal, over 100 µM; with NCI/ADR-RES ovarian, over 100 µM. The TGI with UACC-257 melanoma is over 100 µM; in the test with HOP-92 NSCLC it was 53.3 µM; in the test on HS 578T breast it was 83.8 µM; with KM12 colon, over 100 µM.
Regarding `O=Cc1cn(CCCCCCCCCCCCn2cc(C=O)c3ccccc32)c2ccccc12`, the total growth inhibition concentration (TGI) in the test with HL-60(TB) leukemia, in the test on ACHN renal, with MOLT-4 leukemia, in the test with MDA-N, in the test with M14 melanoma and in the test on 786-0 renal was over 100 µM each time. Also, the concentration for total growth inhibition (TGI) in the test with NCI/ADR-RES ovarian, in the test on UACC-257 melanoma, in the test on HOP-92 NSCLC and in the test with HS 578T breast was over 100 µM each time.
As for `CC(C)(C)OC(=O)N1CCc2[nH][nH]c(=O)c2C1`, the concentration for total growth inhibition (TGI) with HL-60(TB) leukemia, with MOLT-4 leukemia, with MDA-N, with M14 melanoma, in the test with 786-0 renal and in the test on NCI/ADR-RES ovarian was over 100 µM throughout. For the same compound, the TGI with UACC-257 melanoma, with HOP-92 NSCLC, in the test with HS 578T breast and in the test with KM12 colon was over 100 µM throughout.
In the case of `Nc1ccc2c(c1)N(C(=O)c1cc3cc(NC(=O)c4cc5ccccc5o4)ccc3[nH]1)CC2CCl` (stereo not given), the total growth inhibition concentration (TGI) in the test on HL-60(TB) leukemia was over 100 µM; in the test on ACHN renal, 11.6 µM; in the test with MOLT-4 leukemia, over 100 µM; in the test on MDA-N, 0.512 µM; with 786-0 renal, over 37.9 µM; in the test with NCI/ADR-RES ovarian, 0.338 µM. Further, the TGI in the test on HOP-92 NSCLC is 1.47 µM; with HS 578T breast, 0.696 µM; in the test with KM12 colon, 2.37 µM.
Turning to `CCc1cc2c(oc3cc4ccccc4cc32)c(=O)[nH]1`, the concentration for total growth inhibition (TGI) with HL-60(TB) leukemia, in the test on ACHN renal, with MDA-N, in the test with M14 melanoma, in the test with 786-0 renal and with NCI/ADR-RES ovarian was over 10 µM in each case. For the same compound, the TGI in the test on UACC-257 melanoma, in the test with HOP-92 NSCLC, in the test with HS 578T breast and in the test with KM12 colon was over 10 µM each time.
